molecular target: model TCER IMAHiAff#1; test: BLI measurements (Octet RED384) of peptide-loaded disulfide-stabilized pHLA; format: binding; conditions: not given
Description: In order to confirm our results obtained from the ultra high throughput highSCORE measurements, we compared the KD values with the corresponding ones from BLI measurements (Fig. 4). The direct correlation between the two methods can be described as a hockey stick. Many peptides with single amino acid mutations show similar KD values as the WT peptide. This is especially the case for KD values obtained from the highSCORE measurements. Within the BLI data set, most of the library peptides show a higher KD value compared to the corresponding WT peptide (Fig. 4a). This relation results in a flat region within the correlation plot. All other peptide, with the exception of the ones highlighted with an arrow, show a good linear correlation between both data sets. It is important to note that while the spectroscopic principle behind BLI and highSCORE is similar, the experimental procedure is different. Using BLI, the pHLA complexes are bound to a sensor tip, which is dipped into a microtiter plate well containing the analyte. Thereafter, the sensor tip is wiggled within the well to ensure that the analyte is not depleted on the surface. In contrast, during a highSCORE measurement, the analyte is flushed over the microarray using a thin flow chamber. This makes the experimental procedure of a highSCORE measurement more similar to that of an SPR device. Consequently, differences in the KD values between BLI and highSCORE measurements are to be expected and might explain the shift in the overall distribution of the KD values (Fig. 4b). […] Since both measurement methods have their own advantages and disadvantages, it is difficult to tell which of the two methods provides the values that are closest to reality.
BLI measurements were performed on an Octet RED384 system using anti-Penta-His biosensors. In short, disulfide-stabilized molecules were refolded and peptide-loaded as previously described. All analytes or ligands were diluted to their final concentration in kinetics buffer (PBS, 0.1% BSA, 0.05% Tween-20) if not specified otherwise. All biosensors were hydrated for at least 10 minutes in kinetics buffer before use. Loadings and measurements were performed in 384 tilted well plates (Pall Fortébio) with at least 40 μ l at a 3 mm sensor offset. Plate temperature was set at 30 ^∘ C and shaker speed at 1000 rpm. To generate a baseline, sensors were dipped in kinetics buffer for 60 s before being loaded with 10 ug/ml of peptide loaded disulfide-stabilized pHLA for 120 s. Afterwards, a second 120 s baseline was recorded before a 60 s association and a 240 s dissociation phase. After individual measurements, sensors were regenerated using 10 mM Glycine pH 1.5 4 times for 5s each before another cycle was performed. 4 TCER concentrations (500nM, 158.1nM, 50nM and 15.8nM) were measured for each pHLA complex. A sensor loaded with an irrelevant pHLA was measured in line for reference sensor subtraction. All sensorgrams were analyzed using the OctetRED software “Data Analysis HT” version 11.0.0.50 (Pall Fortébio). Raw sensor data was aligned at the Y axis by aligning the data to the end of the baseline step, and inter-step correction was used to align the start of the dissociation to the end of the association phase. Savitzky-Golay filtering was applied. Resulting sensorgrams were then fitted using a 1:1 Langmuir kinetics binding model. In case of lower affinity binding events, the lower two concentrations were excluded from the fitting.

Sequence | BLI_KD
SLLQHLDGL [D7] | no fit
SLLQHLEGL [E7] | no fit
SLLQHLIFL [F8] | no fit
SLLQHLIWL [W8] | no fit

same assay, conditions: std in a column of its own

Sequence | BLI_KD
SLLQHLWGL [W7] | no fit
SLLQHPIGL [P6] | no fit
